Data published in article PMC10250618, “Synthesis, structure-activity relationships and biological evaluation of benzimidazole derived sulfonylurea analogues as a new class of antagonists of P2Y1 receptor” (Frontiers in Pharmacology, 2023).
Like-named read-outs stand apart in the source and are kept apart here.

Assays:
r-P2Y6 = target: T1, r-P2Y6 (Rattus norvegicus, UniProt Q63371); assay: Calcium mobilization assay, r-P2Y6 transfected 1321N1 astrocytoma cells; format: cell-based; settings: for inhibition at 100 µM: 1321-N1, final conc of 100 μM
T1 construct: host or cells: human 1321N1 astrocytoma cells, stably transfected
Description: (§1) Dr. Gary A. Weisman provided human-1321N1 astrocytoma cells that had been transfected by the tP2Y1R, hP2Y2R, hP2Y4R, and rP2Y6R and untransfected 1321N1 astrocytoma cells (University of Missouri Mo., Bond Life Science Center). The DMEM Dulbecco’s Modified Eagle -Medium (Gibco) was added in flasks to cultivate the cell line. 10% of the Fetal bovine serum was also added to the media together with 500 μg/mL of Geneticin (G418) and 1% of the Pen/Strep. The cells in T-75 flask were then cultured and incubated in a CO2 incubator which was maintained at (5%) and 37°C temperature until 90% of the cells were confluent. Throughout the experiment, cells were periodically checked for the confluency and strictly watched for the microbial contamination.
(§2) The FLUOstar Galaxy (BMG LABTECH GmbH, Ortenberg, Germany) microplate reader with two injectors was used to measure the Ca^2+ fluorescence of synthetic compounds. For this assay, 1321N1 transfected cells (t-P2Y1, h-P2Y2, h-P2Y4, and r-P2Y6) were cultured in T-75 flask. When cells reached the confluency of 80%–90%, they were washed with PBS and then Trypsin was added. After trypsinization for 3 min, 20,000 cells/well were allowed to seed in a black wall and 96 well clear bottom plate which was coated with Poly-D-Lysine and allowed to incubate for 24 h in 37°C, 5% CO2 incubator. After incubation, 200 μL culture media was changed with 100 μL HBSS containing Fura-2 AM which is calcium chelating dye and allowed the plate to incubate for 45 min in dark at temp of 37°C in incubator which is maintained with carbon dioxide (5% CO2). After incubation for 45 min, synthesized molecules were added to HBSS washed cells in each well of 96 well plate and re-incubated for 30 min at 37°C. In next step, injection of the endogenous ligand such as ADP through the injector was followed by excitation and emission measurements of Fura-2 AM at 380/520 nm and 340/520. Final volume of the assay per well 200 μL. IC50 values were computed for the compounds displaying more than 50% of activity using Prism 5.0 software (Graph Pad., Inc., San Diego. California, United States) by using analysis i.e., nonlinear regression ([Kassack et al., 2002]; [Ullmann et al., 2005]).

MTT assay, HEK-293 = format: cell-based; settings: human, HEK-293 cells; at 50 µM; triplicate; read-out: HEK-293 Cell Line (%cytotoxicity ±SEM)
MTT assay, HeLa = format: cell-based; settings: human, HeLa cells; at 50 µM; triplicate; read-out: HeLa Cell Line (%cytotoxicity ±SEM)
t-P2Y1 = target: T2, t-P2Y1 (Meleagris gallopavo, UniProt P49652); assay: Calcium mobilization assay, t-P2Y1 transfected 1321N1 astrocytoma cells; format: cell-based; settings: for inhibition at 100 µM: 1321-N1, final conc of 100 μM
T2 construct: host or cells: human 1321N1 astrocytoma cells, stably transfected
Description: as §1, §2

h-P2Y2 = target: T3, h-P2Y2 (Homo sapiens, UniProt P41231); assay: Calcium mobilization assay, h-P2Y2 transfected 1321N1 astrocytoma cells; format: cell-based; settings: for inhibition at 100 µM: 1321-N1, final conc of 100 μM
T3 construct: host or cells: human 1321N1 astrocytoma cells, stably transfected
Description: as §1, §2

[1] = MTT assay, non-transfected 1321N1 astrocytoma cells; format: cell-based, human; settings: human, non-transfected 1321N1 astrocytoma cells; at 50 µM; non-transfected astrocytoma 1321N1 cells; triplicate; read-out: H-1321N1 Cell Line (%cytotoxicity ±SEM)
Description: A 96-well plate was used to plate 20,000 human 1321N1 astrocytoma cells and allowed for incubation for 24 h at temp of 37°C in CO2 (5%) incubator. Next to this, the prepared culture media was changed to media which was free from FBS, the test compounds were added and the incubation process was repeated. After incubation of 24 h, the serum free media from the wells was discarded, and 100 μL of the reagent i.e., MTT reagent was pipetted. Plate was then additionally incubated at 37°C for 4 h. Utilizing a microplate reader, absorbance was determined at 570 nm and 630 nm for calculation of cell viability (FLUOstarOmega Microplate Reader-BMG LABTECH GmbH, Ortenberg, Germany) ([Sauer et al., 2009]).

h-P2Y4 = target: T4, h-P2Y4 (Homo sapiens, UniProt P51582); assay: Calcium mobilization assay, h-P2Y4 transfected 1321N1 astrocytoma cells; format: cell-based
T4 construct: host or cells: human 1321N1 astrocytoma cells, stably transfected
Description: as §1, §2

[2] = Ca2+ mobilization inhibition, transfected 1321N1 cells, 100 μM of UDP, read-out: IC50 ± SEM r-P2Y6
[3] = Ca2+ mobilization inhibition, transfected 1321N1 cells, 100 μM ADP, read-out: IC50 ± SEM t-P2Y1
[4] = 1321-N1, final conc of 100 μM, 500 μM UTP, read-out: % Inhibition h-P2Y4
[5] = Ca2+ mobilization inhibition, transfected 1321N1 cells, 500 μM ATP, read-out: IC50 ± SEM h-P2Y2
[6] = Ca2+ mobilization inhibition, transfected 1321N1 cells, 500 μM UTP, read-out: IC50 ± SEM h-P2Y4

T3 sequence (P41231 whole entry): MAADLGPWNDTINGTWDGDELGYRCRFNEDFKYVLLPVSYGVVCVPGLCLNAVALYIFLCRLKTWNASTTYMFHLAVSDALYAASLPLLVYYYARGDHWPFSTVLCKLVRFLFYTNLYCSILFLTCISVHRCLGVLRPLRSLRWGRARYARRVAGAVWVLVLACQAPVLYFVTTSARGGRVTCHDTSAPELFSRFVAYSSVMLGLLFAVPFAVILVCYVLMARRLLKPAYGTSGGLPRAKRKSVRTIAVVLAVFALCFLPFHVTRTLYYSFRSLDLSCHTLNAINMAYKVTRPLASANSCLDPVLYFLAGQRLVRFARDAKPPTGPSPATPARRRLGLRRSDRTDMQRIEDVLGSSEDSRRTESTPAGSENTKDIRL
T4 sequence (P51582 whole entry): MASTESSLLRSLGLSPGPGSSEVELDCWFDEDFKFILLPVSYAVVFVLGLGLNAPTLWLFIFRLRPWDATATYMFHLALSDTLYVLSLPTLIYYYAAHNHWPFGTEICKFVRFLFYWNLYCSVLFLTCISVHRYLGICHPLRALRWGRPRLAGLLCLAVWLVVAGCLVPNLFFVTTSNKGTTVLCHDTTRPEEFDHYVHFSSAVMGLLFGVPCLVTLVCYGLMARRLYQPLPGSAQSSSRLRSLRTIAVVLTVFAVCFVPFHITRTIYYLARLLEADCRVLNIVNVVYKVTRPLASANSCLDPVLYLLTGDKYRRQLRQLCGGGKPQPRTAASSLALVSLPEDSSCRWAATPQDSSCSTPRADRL
T1 sequence (Q63371 whole entry): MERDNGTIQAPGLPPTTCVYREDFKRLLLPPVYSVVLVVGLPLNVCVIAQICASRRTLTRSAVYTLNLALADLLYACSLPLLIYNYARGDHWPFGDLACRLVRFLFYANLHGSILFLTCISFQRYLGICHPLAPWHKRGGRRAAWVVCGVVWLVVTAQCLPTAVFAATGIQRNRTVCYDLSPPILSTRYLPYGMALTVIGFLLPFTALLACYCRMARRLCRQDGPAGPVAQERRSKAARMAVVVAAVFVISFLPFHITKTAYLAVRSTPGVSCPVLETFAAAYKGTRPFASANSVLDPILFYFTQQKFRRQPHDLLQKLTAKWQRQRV
T2 sequence (P49652 whole entry): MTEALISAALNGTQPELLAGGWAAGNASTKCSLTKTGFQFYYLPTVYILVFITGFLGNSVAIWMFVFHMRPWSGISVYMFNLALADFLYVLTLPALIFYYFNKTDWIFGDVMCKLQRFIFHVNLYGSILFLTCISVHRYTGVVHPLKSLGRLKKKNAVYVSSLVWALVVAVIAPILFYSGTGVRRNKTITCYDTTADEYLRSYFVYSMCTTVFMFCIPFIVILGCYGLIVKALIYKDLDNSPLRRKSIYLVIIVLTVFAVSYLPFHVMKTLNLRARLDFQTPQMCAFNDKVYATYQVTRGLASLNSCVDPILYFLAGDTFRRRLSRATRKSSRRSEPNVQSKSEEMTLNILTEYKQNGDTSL

Row | SMILES | IC50 (r-P2Y6; [2]) [µM] | cytotoxicity at 24 h, 50 µM (MTT assay, HEK-293) [%] | cytotoxicity at 24 h, 50 µM (MTT assay, HeLa) [%] | melting point [°C] | IC50 (t-P2Y1; [3]) [µM] | inhibition at 100 µM (h-P2Y2; 500 μM ATP) [%] | cytotoxicity at 24 h, 50 µM [1] [%] | inhibition at 100 µM (h-P2Y4; [4]) [%] | inhibition at 100 µM (r-P2Y6; 100 μM of UDP) [%] | inhibition at 100 µM (t-P2Y1; 100 μM ADP) [%] | IC50 (r-P2Y6) [µM] | IC50 (t-P2Y1) [µM] | IC50 (h-P2Y2) [µM] | inhibition at 100 µM (h-P2Y4; 1321-N1, read-out: % Inhibition h-P2Y4) [%] | IC50 (h-P2Y2; [5]) [µM] | IC50 (h-P2Y4; [6]) [µM] | decreased potency relatively to the derivative 1h (t-P2Y1; P2Y1) | IC50 (h-P2Y4) [µM]
1 | Nc1nc2cc([N+](=O)[O-])ccc2n1C(=O)NS(=O)(=O)c1cc(Cl)cc(Cl)c1O [1a, 2-Amino-N-((3,5-dichloro-2-hydroxyphenyl)sulfonyl)-5-nitro-1H-benzo [d]imidazole-1-carboxamide] | 0.66 ± 0.04 | 13.3 ± 0.1 | 22.2 ± 1.1 | 107 to 110 | 0.37 ± 0.02 | 44 | 27.4 ± 0.5 | 41 | – | – | – | – | – | – | – | – | – | –
2 | Cc1ccc(S(=O)(=O)NC(=O)n2c(N)nc3cc([N+](=O)[O-])ccc32)cc1 [1b, 2-Amino-5-nitro-N-tosyl-1H-benzo [d]imidazole-1-carboxamide] | – | 21.3 ± 0.2 | 21.6 ± 0.2 | 113 to 115 | – | 38 | 17.3 ± 0.8 | 18 | 21 | 33 | – | – | – | – | – | – | – | –
3 | Cc1ccc([N+](=O)[O-])cc1S(=O)(=O)NC(=O)n1c(N)nc2cc([N+](=O)[O-])ccc21 [1c, 2-Amino-N-((2-methyl-5-nitrophenyl)sulfonyl)-5-nitro-1H-benzo [d]imidazole-1-carboxamide] | – | 19.5 ± 0.4 | 26.4 ± 0.7 | 117 to 119 | – | – | 21.1 ± 0.6 | – | – | – | 16.1 ± 0.59 | 11.11 ± 0.04 | 6.32 ± 1.1 | 42 | – | – | – | –
4 | Nc1nc2ccccc2n1C(=O)NS(=O)(=O)c1cc(Cl)cc(Cl)c1O [1e, 2-Amino-N-((3,5-dichloro-2-hydroxyphenyl)sulfonyl)-1H-benzo [d]imidazole-1-carboxamide] | 0.75 ± 0.08 | 16.3 ± 0.2 | 21.3 ± 0.6 | 115 to 117 | 0.46 ± 0.01 | – | 39.9 ± 0.2 | – | – | – | – | – | – | – | 5.5 ± 1.21 | 0.6 ± 0.01 | – | –
5 | Nc1nc2ccccc2n1C(=O)NS(=O)(=O)c1ccc(Cl)cc1 [1f, 2-Amino-N-((4-chlorophenyl)sulfonyl)-1H-benzo [d]imidazole-1-carboxamide] | 9.3 ± 1.12 | 21.2 ± 0.7 | 16.4 ± 0.2 | 110 to 112 | 0.94 ± 0.01 | – | 23.6 ± 0.8 | 47 | – | – | – | – | – | – | 8.41 ± 0.07 | – | about five | –
6 | Cc1ccc([N+](=O)[O-])cc1S(=O)(=O)NC(=O)n1c(N)nc2ccccc21 [1g, 2-Amino-N-((2-methyl-5-nitrophenyl)sulfonyl)-1H-benzo [d]imidazole-1-carboxamide] | – | 14.3 ± 0.3 | 11.6 ± 1.1 | 183 to 184 | 11.2 ± 0.71 | 33 | 46.2 ± 0.2 | 13 | 40 | – | – | – | – | – | – | – | – | –
7 | Nc1nc2cc(Cl)ccc2n1C(=O)NS(=O)(=O)c1ccc(Cl)cc1 [1i, 2-Amino-5-chloro-N-((4-chlorophenyl)sulfonyl)-1H-benzo [d]midazole-1-carboxamide] | – | 36.2 ± 0.1 | 39.3 ± 0.4 | 129 to 131 | 1.21 ± 0.07 | – | 38.7 ± 0.8 | 34 | 41 | – | – | – | – | – | 15.7 ± 1.48 | – | – | –
8 | Cc1ccc([N+](=O)[O-])cc1S(=O)(=O)NC(=O)n1c(N)nc2cc(Cl)ccc21 [1j, 2-Amino-5-chloro-N-((2-methyl-5-nitrophenyl)sulfonyl)-1H-benzo [d]imidazole-1-carboxamide] | 25.4 ± 3.1 | 38.2 ± 0.4 | 26.1 ± 0.7 | 144 to 146 | 13.4 ± 0.22 | 32 | 44.3 ± 0.6 | 42 | – | – | – | – | – | – | – | – | – | –
9 | Nc1nc2cc(Cl)ccc2n1C(=O)NS(=O)(=O)c1ccc([N+](=O)[O-])cc1 [1k, 2-Amino-5-chloro-N-((4-nitrophenyl)sulfonyl)-1H-benzo [d]imidazole-1-carboxamide] | 8.49 ± 1.23 | 27.2 ± 0.2 | 21.7 ± 0.9 | 183 to 184 | 12.4 ± 1.03 | – | 41.7 ± 0.2 | – | – | – | – | – | – | – | 11.1 ± 0.94 | 16.6 ± 1.12 | – | –
10 | O=C(NS(=O)(=O)c1ccc(-c2ccccc2)cc1)n1c(-c2ccccc2)nc2ccccc21 [1l, N-([1.1′-biphenyl]-4-ylsulfonyl)-2-phenyl-1H-benzo [d]imidazole-1-carboxamide] | – | 21.3 ± 0.6 | 28.3 ± 1.2 | 133 to 135 | – | 34 | 47.2 ± 0.4 | 22 | 43 | 27 | – | – | – | – | – | – | – | –
11 | O=C(NS(=O)(=O)c1ccccc1)n1c(-c2ccccc2)nc2ccccc21 [1m, 2-Phenyl-N-(phenylsulfonyl)-1H-benzo [d]imidazole-1-carboxamide] | – | 33.3 ± 0.3 | 39.4 ± 1.3 | 154 to 156 | – | 37 | 37.9 ± 0.7 | 16 | 21 | 29 | – | – | – | – | – | – | – | –
12 | O=C(NS(=O)(=O)c1ccc(Cl)cc1)n1c(-c2ccccc2)nc2ccccc21 [1n, N-((4-chlorophenyl)sulfonyl)-2-phenyl-1H-benzo [d]imidazole-1-carboxamide] | 7.06 ± 1.47 | 38.7 ± 0.3 | 22.4 ± 0.8 | 158 to 160 | 5.69 ± 0.23 | 21 | 26.5 ± 0.4 | 19 | – | – | – | – | – | – | – | – | – | –
13 | O=C(NS(=O)(=O)c1ccc([N+](=O)[O-])cc1)n1c(-c2ccccc2)nc2ccccc21 [1o, N-((4-nitrophenyl)sulfonyl)-2-phenyl-1H-benzo [d]imidazole-1-carboxamide] | – | 27.9 ± 0.8 | 24.3 ± 0.4 | 162 to 164 | – | – | 24.3 ± 0.8 | 46 | 32 | 46 | – | – | – | – | 18.2 ± 0.77 | – | – | –
14 | COc1ccc(S(=O)(=O)NC(=O)n2c(Cl)nc3ccccc32)cc1 [1p, 2-Chloro-N-((4-methoxyphenyl)sulfonyl)-1H-benzo [d]imidazole-1-carboxamide] | 16.3 ± 0.83 | 24.2 ± 0.7 | 20.5 ± 0.2 | 160 to 162 | 5.59 ± 0.91 | 12 | 21.2 ± 0.3 | 20 | – | – | – | – | – | – | – | – | – | –
15 | Nc1c(S(=O)(=O)O)cc(Nc2ccc(Nc3nc(Cl)nc(Nc4cccc(S(=O)(=O)O)c4)n3)c(S(=O)(=O)O)c2)c2c1C(=O)c1ccccc1C2=O [Reactive Blue 2, reference compound] | 2.8 ± 0.11 | – | – | – | – | – | – | – | – | – | – | – | 0.57 ± 0.02 | – | – | – | – | 8.4 ± 1.2
